Laboratory results taken from PMC5870190, “A three-in-one-bullet for oesophageal cancer: replication fork collapse, spindle attachment failure and enhanced radiosensitivity generated by a ruthenium(II) metallo-intercalator” (Chemical Science, 2017).

Columns and labels:
[1] = tested on: OE21 human oesophageal squamous cell carcinoma; experiment: MTT assay, OE21 cells; type: cell-based; settings: for IC50: MTT
Description: MTT assay. OE21, FLO-1 or hSAEC1-KT cells were seeded in 96 well plates at 20,000 cells/well (for 24 h treatment) or 10,000 cells/well (for 72 h treatment) and allowed to adhere for 24 h before treatment. OE33 cells were seeded in 48 well plates at 40,000 cells/well (24 h treatment) or 20,000 cells/well (72 h treatment). Cancer cell lines were treated with chemicals dissolved in RPMI media for consistency. After incubation, 0.5 mg/ml MTT (thiazolyl blue tetrazolium bromide) dissolved in serum-free medium was added for 60 minutes and the formazan product eluted using acidified isopropanol.
(§1) The absorbance at 540 nm was quantified by plate reader (reference wavelength 650 nm). The metabolic activity of the cell population was determined as a percentage of a negative (solvent) control. […]
For the determination of mutation induction, from the untreated and each treated condition, 2x10^5 cells were plated in 10 x 100 mm dishes in selective media (regular media

FLO-1 cells = experiment: Clonogenic survival assay with IR, FLO-1; type: cell-based, human; settings: Ru1 2 μM or Cis 300 nM for 24 h before IR
Description: (§2) Clonogenic survival assay. OE21, OE33 or FLO1 cells were treated with 2 µM Ru1 for 24 h before irradiation with 0-8 Gy using a 137Cs γ-irradiator (IBL637, CIS Bio Int.; dose rate = 0.809 Gy min−1). 1 h after irradiation, cells were detached using Trypsin and re-seeded in 6 well plates at a density of 300 – 20,000 cells/well in triplicate in an incrementally greater number of cells with increasing IR dose to ensure adequate colony formation. Cells were incubated for 7–14 days after re-seeding to allow colony formation before being fixed with 10% methanol, 10% acetic acid and stained with 0.4% methylene blue. OE33 cells required an additional formaldehyde fixation (4% in PBS, 5 mins) step before the addition of methylene blue solution or colony detachment occurred. Colonies containing 50 cells or greater were counted using a Gelcount instrument and accompanying software (Oxford Optronix). Plating efficiencies were determined for each treatment condition and normalised to an untreated control to provide the surviving fraction (S. F.). S.F. versus radiation dose curves were plotted in GraphPad Prism and fit using a second order polynomial function (R2 values > 0.99). Dose modifying factors (DMF) at a SF=0.1 were calculated using the equation: Dose modifying factor (DMF) = IR dose to give S.F. 0.1/IR dose plus compound to give S.F.0.1. […]

OE21 cells [2] = experiment: Micronuclei formation, OE21; type: cell-based, human; settings: 20 μM Ru1, 24 h incubation
Description: (§3) propidium iodide (PI) is standard to quantify DNA content using flow cytometry, bleed-through of the MLCT emission of […]
(§4) To remove these artefacts, a higher concentration of Ru1 (100 µM, 10 mins) was additionally applied post-incubation and fixation to treated and control samples, acting as a substitute DNA dye instead of PI. After staining, cells were centrifuged (1000 rpm, 5 mins) and re-suspended in PBS.
(§5) Samples were analysed using a Biosciences LSRII Flow Cytometer using the FL2 channel to collect (recognisable) cell-cycle […]
(§6) profiles. […] A minimum of
(§7) 10,000 cells were counted for each sample and data were processed using FloJo software.
(§8) Microscopy and immunofluorescence. […]
(§9) emission was collected from 500-530 nm to prevent spectral overlap with Ru1 emission. γH2AX foci were counted using […]
as §1
(§10) Cell cultures were treated as stated, media containing detached/dead cells were removed and retained, and adherent collected by Trypsin and centrifugation. […] Trypan Blue negative and Trypan Blue positive cells were counted by haemocytometer. A minimum of 200 cells were counted for each sample. […]

OE33 cells = experiment: Micronuclei formation, OE33; type: cell-based, human; settings: OE33, 45 μM Ru1, 24 h incubation
Description: as §3, §4, §5, §6, §7, §8, §9, §1, §10

OE21 cells [3] = experiment: Clonogenic survival assay with IR, OE21; type: cell-based, human; settings: Ru1 2 μM or Cis 500 nM for 24 h before IR
Description: as §2

[Ru(phen)2(tpphz)]^2+ [Ru1]
IC50 ([1]; OE21, 24 h constant exposure): 21 ± 4.2 µM | IC50 ([1]; OE21, 72 h constant exposure): 2.9 ± 1.5 µM | greater potency than cisplatin ([1]; OE21, 72 h incubation): two-fold | S.F. (FLO-1 cells; FLO-1, IR 0 Gy): 0.873 | S.F. (FLO-1 cells; FLO-1, IR 2 Gy): 0.188 | S.F. (FLO-1 cells; FLO-1, IR 4 Gy): 0.042 | S.F. (FLO-1 cells; FLO-1, IR 6 Gy): 0.005 | Cells with micronuclei, Percentage (OE21 cells [2]; OE21 (n=1)): 17.8% | Cells with micronuclei, Percentage (OE21 cells [2]; OE21 (n=2)): 15.0% | Cells with micronuclei, Percentage (OE33 cells): 3.4% | S.F. (OE21 cells [3]; OE21, IR 0 Gy): 1.062 | S.F. (OE21 cells [3]; OE21, IR 2 Gy): 0.801 | S.F. (OE21 cells [3]; OE21, IR 4 Gy): 0.410 | S.F. (OE21 cells [3]; OE21, IR 6 Gy): 0.152 | S.F. (OE21 cells [3]; OE21, IR 8 Gy): 0.062
